# Test results: patent publication US6867299B2, “Oxamide IMPDH inhibitors” (Hoffmann-La Roche Inc., priority 2000, dated 2005)
# Counter-ions that a name gives are not always drawn.
# Biological target: IMPDH (human type II) (Homo sapiens, UniProt P12268)
# Test: IMPDH inhibitor assay, spectrophotometric (NADH formation at 340 nm)
# Type: biochemical
# Conditions: 37° C., pH8.0, 2.5% DMSO, 10 concentrations of inhibitor
# Procedure: IMPDH activity can be assayed using an adaptation of the method reported by Carr [S. Carr et al., J. Biol. Chem. 268, p.27286 (1993)], the disclosure of which is herein incorporated by reference. IMPDH activity was measured spectrophotometrically, by monitoring the increase in absorbance at 340 nm due to the formation of NADH (ε340 is 6220 M−1 cm−1) from the reduction of NAD. The IMPDH reaction mixture contained 0.1M Tris pH8.0, 0.1M KCl, 1 mM DTT, 3 mM EDTA, […]. The reaction was initiated by the addition of IMPDH (human type II) to a final concentration in the assay of between 1 nM and 5 nM with respect to the IMPDH tetramer. The initial rate is measured by following the linear increase in absorbance at 340 nm at 37° C. for 45 minutes. The reading was conducted using a Spectromax 190 (Molecular Devices) spectrophotometer in a 96 well plate format with a final reaction volume of 200 μl.
# For inhibitor assay analysis, the compound is dissolved in DMSO to a final concentration of 10 mM and added to the initial reaction mixture as 5 μl to give final DMSO concentration of 2.5%. The enzyme reaction is initiated by the addition of IMPDH and the initial rates measured as above. IC50 determinations are made by measuring the initial rates in the presence of 10 concentrations of inhibitor and fitting the data using the 4 parameter curve fit from the Softmax pro software (Molecular Devices).
row,Compound,IC50 [nM]
1,"CCC(C)(C)NC(=O)C(=O)Nc1ccc(-c2cnco2)c(OC)c1 [N-(1,1-Dimethylpropyl)-N′-[3-methoxy-4-(5-oxazolyl)phenyl]oxalamide]",31
2,"COc1cc(NC(=O)C(=O)NC(C)(C)Cc2ccc([N+](=O)[O-])cc2)ccc1-c1cnco1 [N-[3-Methoxy-4-(5-oxazolyl)phenyl]-N′-[1,1-dimethyl-2-(4-nitrophenyl)ethyl]oxalamide]",10
3,COc1cc(NC(=O)C(=O)Nc2cccc(CNC(=O)Oc3ccccc3)c2)ccc1-c1cnco1 [Phenyl [3-[[[4-(5-oxazolyl)anilino]oxalyl]amino]benzyl]carbamate],11
4,COc1cc(NC(=O)C(=O)Nc2cccc(CNC(=O)c3ccccc3)c2)ccc1-c1cnco1 [N-[3-(Benzamidomethyl)phenyl]-N′-[3-methoxy-4-(5-oxazolyl)phenyl]oxalamide],13
5,"COc1cc(NC(=O)C(=O)NC(C)(C)CO)ccc1-c1cnco1 [N-(2-Hydroxy-1,1-dimethylethyl)-N′-[3-methoxy-4-(5-oxazolyl)phenyl]oxalamide]",72
6,COc1cc(NC(=O)C(=O)Nc2cccc(CN)c2)ccc1-c1cnco1 [N-[3-(Aminomethyl)phenyl]-N′-[3-methoxy-4-(5-oxazolyl)phenyl]oxalamide trifluoroacetate (1:1)],233
7,CC(C)(C)NC(=O)C(=O)Nc1ccc(-c2cnco2)c(Cl)c1 [N-tert-Butyl-N′-[3-chloro-4-(5-oxazolyl)phenyl]oxalamide],169
8,COc1cc(NC(=O)C(=O)NC(C)(C)CNC(=O)OC(C)(C)C)ccc1-c1cnco1 [tert-Butyl [2-[[[3-methoxy-4-(5-oxazolyl)anilino]oxalyl]amino]-2-methylpropyl]carbamate],75
9,COc1cc(NC(=O)C(=O)Nc2cccc(CNC(=O)OC(C)C)c2)ccc1-c1cnco1 [Isopropyl [3-[[[3-methoxy-4-(5-oxazolyl)anilino]oxalyl]amino]benzyl]carbamate],33
10,COc1cc(NC(=O)C(=O)NC(C)(C)C)ccc1-c1cnco1 [N-tert-Butyl-N′-[3-methoxy-4-(5-oxazolyl)phenyl]oxalamide],37

# The remaining compounds from weak to strong by IC50, led by results:
row,IC50 [nM],Compound
1,460,COc1cc(NC(=O)C(=O)NC(C)(C)C)ccc1-c1cocn1 [N-tert-Butyl-N′-[3-methoxy-4-(4-oxazolyl)phenyl]oxalamide]
2,277,COc1cc(NC(=O)C(=O)Nc2cccnc2)ccc1-c1cnco1 [N-[3-Methoxy-4-(5-oxazolyl)phenyl]-N′-(3-pyridyl)oxalamide]
3,199,CNC(=O)C(C)(C)NC(=O)C(=O)Nc1ccc(-c2cnco2)c(OC)c1 [N-[3-Methoxy-4-(5-oxazolyl)phenyl]-N′-[1-methyl-1-(methylcarbamoyl)ethyl]oxalamide]
4,170,"COc1cc(NC(=O)C(=O)NC(C)(C)CN(C)C)ccc1-c1cnco1 [N-(2-Dimethylamino-1,1-dimethylethyl)-N′-[3-methoxy-4-(5-oxazolyl)phenyl]oxalamide hydrochloride (1:1)]"
5,125,COc1cc(NC(=O)C(=O)Nc2cccc(CNS(=O)(=O)c3ccccc3)c2)ccc1-c1cnco1 [N-[3-[(Benzenesulfonamido)methyl]phenyl]-N′-[3-methoxy-4-(5-oxazolyl)phenyl]oxalamide]
6,121,COC(=O)NCc1cccc(NC(=O)C(=O)Nc2ccc(-c3cnco3)c(OC)c2)c1 [Methyl [3-[[[3-methoxy-4-(5-oxazolyl)anilino]oxalyl]amino]benzyl] carbamate]
7,97,"COc1cc(NC(=O)C(=O)NC(C)(C)CN)ccc1-c1cnco1 [N-(2-Amino-1,1-dimethylethyl)-N′-[3-methoxy-4-(5-oxazolyl)kphenyl]oxalamide trifluoroacetate (1:1)]"
8,48,"C#CC(C)(C)NC(=O)C(=O)Nc1ccc(-c2cnco2)c(OC)c1 [N-(1,1-Dimethylpropargyl)-N′-[3-methoxy-4-(5-oxazolyl)phenyl]oxalamide]"
9,44,COc1cc(NC(=O)C(=O)Nc2cccc(CNC(=O)O[C@H]3CCOC3)c2)ccc1-c1cnco1 [[3-[[[3-Methoxy-4-(5-oxazolyl)anilino]oxalyl]amino]benzyl]carbamic acid tetrahydro-3(S)-furyl ester]
10,36,COc1cc(NC(=O)C(=O)Nc2cccc(CNC(=O)OC(C)(C)C)c2)ccc1-c1cnco1 [tert-Butyl [3-[[[3-methoxy-4-(5-oxazolyl)anilino]oxalyl]amino]benzyl]carbamate]
11,35,COc1cc(NC(=O)C(=O)Nc2cccc(CC(=O)Nc3ccccc3)c2)ccc1-c1cnco1 [N-[3-Methoxy-4-(5-oxazolyl)phenyl]-N′-[3-[(phenylcarbamoyl)methyl]phenyl]oxalamide]
12,34,"COc1cc(NC(=O)C(=O)NC(C)(C)CC(C)(C)C)ccc1-c1cnco1 [N-[3-Methoxy-4-(5-oxazolyl)phenyl]-N′-(1,1,3,3-tetramethyl-butyl)oxalamide]"
13,30,COc1cc(NC(=O)C(=O)NC(C)(C)c2ccccc2)ccc1-c1cnco1 [N-[3-Methoxy-4-(5-oxazolyl)phenyl]-N′-(1-methyl-1-phenylethyl)oxalamide]
14,15,"COc1cc(NC(=O)C(=O)NC(C)(C)Cc2ccccc2)ccc1-c1cnco1 [N-(1,1-Dimethyl-2-phenylethyl)-N′-[3-methoxy-4-(5-oxazolyl)phenyl]oxalamide]"
